# In ChEMBL document CHEMBL3351316, “Scaffold hopping approach on the route to selective tankyrase inhibitors” (Eur J Med Chem, 2014):
# Legend:
# [1] = Lipophilicity, log D of the compound at pH 7.4; format: physicochemical; details: buffer
# Tankyrase 1/2 = target: T1, Tankyrase 1/2 (Homo sapiens, UniProt Q9H2K2+O95271); assay: Inhibition of tankyrase in human DLD1 cells assessed as reduction in Wnt activity after 24 hrs by TCF-luciferase reporter gene assay; format: cell-based; details: dld-1
# T1 sequence (Q9H2K2 whole entry): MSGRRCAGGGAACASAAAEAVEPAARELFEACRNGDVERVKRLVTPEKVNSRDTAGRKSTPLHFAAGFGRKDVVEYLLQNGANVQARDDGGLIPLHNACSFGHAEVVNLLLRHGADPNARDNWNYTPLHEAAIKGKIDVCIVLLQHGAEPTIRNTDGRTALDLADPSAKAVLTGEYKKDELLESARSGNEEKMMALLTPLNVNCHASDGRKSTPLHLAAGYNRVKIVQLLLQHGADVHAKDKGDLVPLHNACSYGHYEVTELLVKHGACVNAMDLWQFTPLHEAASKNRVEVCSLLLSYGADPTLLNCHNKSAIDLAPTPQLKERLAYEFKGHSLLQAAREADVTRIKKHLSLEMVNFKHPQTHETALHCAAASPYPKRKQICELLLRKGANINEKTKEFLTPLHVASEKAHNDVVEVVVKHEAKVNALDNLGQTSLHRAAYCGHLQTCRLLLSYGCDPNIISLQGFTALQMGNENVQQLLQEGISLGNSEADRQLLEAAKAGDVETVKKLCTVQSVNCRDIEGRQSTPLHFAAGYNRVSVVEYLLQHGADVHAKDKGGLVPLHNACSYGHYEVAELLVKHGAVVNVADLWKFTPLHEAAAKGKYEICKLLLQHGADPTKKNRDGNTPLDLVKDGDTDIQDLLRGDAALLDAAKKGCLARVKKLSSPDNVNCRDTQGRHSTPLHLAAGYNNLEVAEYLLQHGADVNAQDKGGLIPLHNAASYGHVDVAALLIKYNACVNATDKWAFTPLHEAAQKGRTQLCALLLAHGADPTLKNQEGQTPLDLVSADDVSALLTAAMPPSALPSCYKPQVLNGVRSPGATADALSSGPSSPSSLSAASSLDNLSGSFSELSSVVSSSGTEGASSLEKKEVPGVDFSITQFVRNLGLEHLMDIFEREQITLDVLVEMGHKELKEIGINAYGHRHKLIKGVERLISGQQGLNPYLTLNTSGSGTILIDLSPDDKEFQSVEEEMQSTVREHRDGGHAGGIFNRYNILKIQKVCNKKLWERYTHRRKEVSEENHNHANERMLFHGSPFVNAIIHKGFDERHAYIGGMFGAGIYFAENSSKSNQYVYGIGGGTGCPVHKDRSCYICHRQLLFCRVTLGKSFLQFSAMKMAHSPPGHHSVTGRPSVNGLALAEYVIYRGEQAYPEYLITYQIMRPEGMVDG
# T1 sequence (O95271 whole entry): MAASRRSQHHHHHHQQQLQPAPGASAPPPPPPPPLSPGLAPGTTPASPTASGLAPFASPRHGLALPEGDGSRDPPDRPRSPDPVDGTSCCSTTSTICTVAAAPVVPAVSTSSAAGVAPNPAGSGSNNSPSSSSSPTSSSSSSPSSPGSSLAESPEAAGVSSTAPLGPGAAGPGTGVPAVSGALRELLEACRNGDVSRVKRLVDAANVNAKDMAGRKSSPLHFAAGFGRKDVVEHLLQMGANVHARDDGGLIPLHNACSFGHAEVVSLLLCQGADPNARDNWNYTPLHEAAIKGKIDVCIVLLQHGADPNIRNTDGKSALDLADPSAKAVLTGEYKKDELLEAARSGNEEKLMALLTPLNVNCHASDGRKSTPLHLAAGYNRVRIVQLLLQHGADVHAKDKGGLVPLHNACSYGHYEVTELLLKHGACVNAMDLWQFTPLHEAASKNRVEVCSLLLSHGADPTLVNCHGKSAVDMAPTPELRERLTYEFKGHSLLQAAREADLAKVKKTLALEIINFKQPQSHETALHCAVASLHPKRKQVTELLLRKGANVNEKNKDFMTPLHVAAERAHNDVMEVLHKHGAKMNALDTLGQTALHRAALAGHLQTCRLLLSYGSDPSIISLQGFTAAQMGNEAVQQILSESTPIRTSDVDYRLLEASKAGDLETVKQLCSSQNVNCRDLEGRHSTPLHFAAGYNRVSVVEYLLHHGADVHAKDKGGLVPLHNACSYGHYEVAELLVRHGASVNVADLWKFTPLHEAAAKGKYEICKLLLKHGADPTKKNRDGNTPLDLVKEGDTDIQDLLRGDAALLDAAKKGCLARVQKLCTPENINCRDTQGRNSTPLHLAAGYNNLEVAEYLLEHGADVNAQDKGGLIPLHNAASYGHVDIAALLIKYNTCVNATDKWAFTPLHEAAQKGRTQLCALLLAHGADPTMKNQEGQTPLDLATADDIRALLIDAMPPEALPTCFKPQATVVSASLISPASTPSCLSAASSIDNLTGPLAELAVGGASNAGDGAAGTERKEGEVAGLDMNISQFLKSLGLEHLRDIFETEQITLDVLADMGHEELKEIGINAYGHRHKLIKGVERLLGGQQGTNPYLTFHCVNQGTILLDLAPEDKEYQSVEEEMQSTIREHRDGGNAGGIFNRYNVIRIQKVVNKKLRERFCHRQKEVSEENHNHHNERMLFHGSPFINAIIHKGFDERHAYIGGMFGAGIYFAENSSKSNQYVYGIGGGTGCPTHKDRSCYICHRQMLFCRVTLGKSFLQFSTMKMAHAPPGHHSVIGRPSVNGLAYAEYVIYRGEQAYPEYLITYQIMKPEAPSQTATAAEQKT
smiles,measurement,setting,value
CC(C)(C)c1ccc(-c2nc3c(sc4ccccc43)c(=O)[nH]2)cc1,logD,[1],5.16
same,IC50,Tankyrase 1/2,0.832 µM
